Results reported in patent publication US7566812B2, “Transgenic mouse models of hepatitis C virus (HCV) and identification of HCV therapeutics” (priority 2004, dated 2009).

Experiments:
NS3/4A-Tg mice = assay: Survival after TNF-α/D-Gal challenge, NS3/4A transgenic mice; assay type: in vivo, mouse
Protocol: (§1) This Example describes several of the approaches used to induce hepatic injury in the NS3/4A-Tg mice and the techniques used to analyze the data. All NS3/4A-Tg or wild-type (Wt) mice used in these experiments were male and/or females between 6-12 weeks old. All groups of mice contained five to ten mice. Comparisons were done in age matched animals, excluding an age dependent difference when comparing groups. For the carbon tetrachloride (CCl4) treatment, CCl4 was diluted in 100 μL olive oil and administered intraperitoneal (i.p.) as a single dose to NS3/4A-Tg and Wt mice. Each mouse was treated with 10 mg (0.5 g/kg) CCl4 (Sigma). Serum from individual mice was collected at various time intervals (12, 24, 48, and 72 hours) after CCl4-treatment by retro-orbital bleeding. Serum alanine aminotransferase (ALT) values were measured to evaluate the extent of liver injury. […] Serum ALT values were measured to evaluate the extent of liver injury. […] Serum ALT values were measured to evaluate the extent of liver injury. […] Serum ALT values were measured to evaluate the extent of liver injury. […] Serum ALT values were measured to evaluate the extent of liver injury.
(§2) SB203580 (Calbiochem) was dissolved/diluted in sterile dH2O and administered to mice intra orally (i.o.). […] The following Example teaches how the above data were statistically analyzed.

wild-type mice = assay: Survival after TNF-α/D-Gal challenge, wild-type mice; assay type: in vivo, mouse
Protocol: as §1, §2

HCV = assay: Treatment of a patient with HCV related complications; assay type: in vivo; settings: repeated course of treatment
Protocol: A patient in need of treatment of HCV related complications is identified by routine methods. The patient is administered an amount of SB203580, based on the particular patient and the severity of the HCV symptoms. Following a repeated course of treatment, if required, the patient's HCV related symptoms are reduced. In some applications, the reduction of viral lode or another indicator for HCV infection is measured. The next example describes more transgenic organisms that contain the constructs described herein.

[1] = tested on: NS3/4A-SP2/0 tumor cell line; assay: In vivo tumor growth assay in immunized Balb/c mice, NS3/4A-SP2/0 cells; settings: 3 mg ribavirin with 100, 10 or 1 micrograms coNS3/4A, single immunization
Protocol: To study whether the constructs described above were capable of eliciting a cell-mediated response against NS3, an in vivo tumor growth assay was performed. To this end, an SP2/0 tumor cell line (SP2/0-Ag14 myeloma cell line (H-2^d)) stably transfected with the NS3/4A gene was made. The SP2/0 cells were maintained in DMEM medium supplemented with 10% fetal calf serum (FCS; Sigma Chemicals, St. Louis, Mo.), 2 mM L-Glutamine, 10 mM HEPES, 100 U/ml Penicillin and 100 μg/ml Streptomycin, 1 mM non-essential amino acids, 50 μM β-mercaptoethanol, 1 mM sodium pyruvate (GIBCO-BRL, Gaithesburgh, Md.). The pcDNA3.1 plasmid containing the NS3/4A gene was linearized by BglII digestion. […]
Transfected cells were cloned by limiting dilution and selected by addition of 800 μg geneticin (G418)/ml complete DMEM medium after 14 days. […] Bound murine serum antibodies were detected by an alkaline phosphatase conjugated goat anti-mouse IgG (Sigma cell products, Saint Louis, Mo. USA) followed by addition of the substrate pNPP (1 tablet/5 ml of 1 M Diethanolamin buffer with 0.5 mM MgCl2). […] Absorbance was then read at 405 nm.
The in vivo growth kinetics of the SP2/0 and the NS3/4A-SP2/0 cell lines were then evaluated in Balb/c mice. […] Each day the size of the tumor was determined through the skin. […]

[2] = tested on: NS3/4A-EL-4 tumor cell line; assay: Tumor challenge model with NS3/4A-EL-4 tumor cells; assay type: in vivo; settings: C57BL/6 mice
Text: To define the in vivo functional anti-tumor effector cell population, CD4+ or CD8+ T cells were depleted in mice immunized with the coNS3/4A plasmid one week prior to, and during, challenge with the NS3/4A-EL-4 tumor cell line. […] Thus, NS3/4A-specific CD8+ CTLs are the major protective cell at the effector stage in the in vivo model for inhibition of tumor growth.
The tumor challenge model was used to evaluate how effective the different immunogens were in priming a protective immunity against growth of NS3/4A-EL4 tumor cells in vivo. To ensure that the effectiveness of the priming event was studied, all mice were immunized only once. Vectors containing NS3/4A were able to rapidly prime protective immune responses as compared to the immunized with the empty pVAX plasmid (p<0.05, ANOVA; FIG. 10). […] The next example examines the prerequisites for priming of CD8+ CTL.
To further clarify the prerequisites for priming of CD8+ CTL additional experiments were performed. First, C57BL/6 mice immunized with the NS3-derived CTL peptide were not protected against growth of NS3/4A-EL-4 tumors. […] To further characterize the priming event, groups of B cell (μMT; Kitamura D., et al., Nature, 350: 423-426 (1991)) or CD4 deficient C57BL/6 mice (Rahemtulla A et al., Nature, 353:180-184 (1991)) were immunized once with the coNS3/4A gene using gene gun, and challenged two weeks later (FIG. 10). […]

[3] = 0.5 mg (25 mg/kg) i.o. thirty minutes prior to rm TNF-α/D-Gal

Compound: C[S+]([O-])c1ccc(-c2nc(-c3ccncc3)c(-c3ccc(F)cc3)[nH]2)cc1 (stereo not shown) [SB203580]
- TNF-alpha sensitivity phenotype (survival) of NS3/4A transgenic mice (NS3/4A-Tg mice; [3]): reverted to TNF-alpha sensitive phenotype
- impact on the survival rate of wild-type mice provided TNF-alpha (wild-type mice; [3]): no significant
- patient's HCV related symptoms (HCV): reduced

Compound: NC(=O)c1ncn([C@@H]2O[C@H](CO)[C@@H](O)[C@H]2O)n1 [ribavirin, 1-β-D-ribofuranosyl-1,2,4-triazole-3-carboxamide]
- effect of the adjuvant on the effectiveness of the initial coNS3/4A immunization (tumor size) [1]: dramatically increased the effectiveness

Compound: GAVQNEVTL (Artificial Peptide, NS3/4A H-2D Binding Peptide) [NS3-derived CTL peptide]
- protection against growth of NS3/4A-EL-4 tumors [2]: not protected

Compound: TNF-α
- survival of the lethal TNF-α dose (NS3/4A-Tg mice; 5 μg/kg, NS3/4A-Tg mice): all NS3/4A-Tg mice survived
- mice killed (wild-type mice; 5 μg/kg, non-transgenic mice, within 24 hours): 80%
